The values that follow come from patent US20220213144A1, “HALOGENATED ANTIMICROBIAL PEPTOIDS” (priority 2019, published 2022).

The nature of the data set: Small angle X-ray scattering, critical aggregation concentration from fit. Type of data set: physicochemical. Conditions: for critical aggregation concentration (CAC): SAXS fit analysis, bundle model. The method, then: SAXS experiments of the 10-mer peptoids were performed on the automated BM29 bioSAXS beamline at the European Synchrotron Radiation Facility (ESRF) in Grenoble, France. The data was obtained using an energy of 12.5 keV and a detector distance of 2.87 m, covering a q range (q=4π sin(θ/2)/λ), where θ is the scattering angle and λ is the X-ray wavelength) of about 0.0047 Å-1 to 0.5 Å-1. The data set was calibrated to an absolute intensity scale using water as a primary standard. Samples (40 μL) were run through a capillary using the flow mode of the automated sample changer. SAXS data was collected in ten successive frames of 0.5 s each to monitor radiation damage, and the data reduction was done using the standard tool at BM29.
The SAXS experiments on the fully iodinated 6-, 8-, and 12-mers to determine the CAC of the compounds were performed using a Bruker NANOSTAR equipped with a microfocus X-ray source (IμS Cu, Incoatec, Germany) and a VANTEC-2000 detector. Raw scattering data was calibrated to absolute intensity scale using water as a primary standard and radially averaged in order to obtain the 1D scattered intensity profile as a function of the scattering vector, with a wavelength of 1.54 Å.
where fagg is the fraction of peptoid chains aggregated in bundles, allowing for calculation of a CAC from ϕCAC=ϕ−(fagg*ϕ).

Where [1] appears, read: Table 2, 10-mers, SAXS at ESRF, model fit.
The mark [2] stands for this setting: Table 3, fully iodinated peptoids, bundle model fit.

Square brackets hold non-standard residues; d marks the D form. Peptide text beside a SMILES is read from it. Gly(Nα-4-Cl-benzyl) = O=C(O)CNCc1ccc(Cl)cc1; N(4-F-Bzl)Gly = O=C(O)CNCc1ccc(F)cc1; NBzl(4-I)Gly = O=C(O)CNCc1ccc(I)cc1; Nphe = O=C(O)CNCc1ccccc1; Nlys = NCCCCNCC(=O)O

Compound `NCCCCNCC(=O)N(CC(=O)N(CCCCN)CC(=O)N(CC(=O)N(CCCCN)CC(=O)N(CC(=O)N(CCCCN)CC(=O)N(CC(=O)N(CCCCN)CC(=O)N(CC(N)=O)Cc1ccc(F)cc1)Cc1ccc(F)cc1)Cc1ccc(F)cc1)Cc1ccc(F)cc1)Cc1ccc(F)cc1` [Compound 20] (H-[Nlys][N(4-F-Bzl)Gly][Nlys][N(4-F-Bzl)Gly][Nlys][N(4-F-Bzl)Gly][Nlys][N(4-F-Bzl)Gly][Nlys][N(4-F-Bzl)Gly]-NH2; N-terminus assumed) gave a CAC under setting [1] of more than 5 mg/mL.

`NCCCCNCC(=O)N(CC(=O)N(CCCCN)CC(=O)N(CC(=O)N(CCCCN)CC(=O)N(CC(=O)N(CCCCN)CC(=O)N(CC(=O)N(CCCCN)CC(=O)N(CC(N)=O)Cc1ccc(Cl)cc1)Cc1ccc(Cl)cc1)Cc1ccc(Cl)cc1)Cc1ccc(Cl)cc1)Cc1ccc(Cl)cc1` [Compound 21] (H-[Nlys][Gly(Nα-4-Cl-benzyl)][Nlys][Gly(Nα-4-Cl-benzyl)][Nlys][Gly(Nα-4-Cl-benzyl)][Nlys][Gly(Nα-4-Cl-benzyl)][Nlys][Gly(Nα-4-Cl-benzyl)]-NH2; N-terminus assumed) came in with a CAC under setting [1] of more than 5 mg/mL.

Consider `NCCCCNCC(=O)N(CC(=O)N(CCCCN)CC(=O)N(CC(=O)N(CCCCN)CC(=O)N(CC(=O)N(CCCCN)CC(=O)N(CC(=O)N(CCCCN)CC(=O)N(CC(N)=O)Cc1ccc(I)cc1)Cc1ccc(I)cc1)Cc1ccc(I)cc1)Cc1ccc(I)cc1)Cc1ccc(I)cc1` [Compound 23] (H-[Nlys][NBzl(4-I)Gly][Nlys][NBzl(4-I)Gly][Nlys][NBzl(4-I)Gly][Nlys][NBzl(4-I)Gly][Nlys][NBzl(4-I)Gly]-NH2; N-terminus assumed), for which the “critical aggregation concentration (CAC)” value came to 0.5 mg/mL. The compound further displayed a CAC under setting [1] of 0.4 mg/mL. This compound registered a CAC under setting [2] of 0.5 mg/mL.

In turn, `NCCCCNCC(=O)N(CC(=O)N(CCCCN)CC(=O)N(CC(=O)N(CCCCN)CC(=O)N(CC(=O)N(CCCCN)CC(=O)N(CC(=O)N(CCCCN)CC(=O)N(CC(N)=O)Cc1ccc(F)cc1)Cc1ccccc1)Cc1ccc(F)cc1)Cc1ccccc1)Cc1ccc(F)cc1` [Compound 24] (H-[Nlys][N(4-F-Bzl)Gly][Nlys][Nphe][Nlys][N(4-F-Bzl)Gly][Nlys][Nphe][Nlys][N(4-F-Bzl)Gly]-NH2) gave a CAC under setting [1] of more than 5 mg/mL.

In turn, `NCCCCNCC(=O)N(CC(=O)N(CCCCN)CC(=O)N(CC(=O)N(CCCCN)CC(=O)N(CC(=O)N(CCCCN)CC(=O)N(CC(=O)N(CCCCN)CC(=O)N(CC(N)=O)Cc1ccc(Cl)cc1)Cc1ccccc1)Cc1ccc(Cl)cc1)Cc1ccccc1)Cc1ccc(Cl)cc1` [Compound 25] (H-[Nlys][Gly(Nα-4-Cl-benzyl)][Nlys][Nphe][Nlys][Gly(Nα-4-Cl-benzyl)][Nlys][Nphe][Nlys][Gly(Nα-4-Cl-benzyl)]-NH2) yielded a CAC under setting [1] of more than 5 mg/mL.

Under setting [1], `NCCCCNCC(=O)N(CC(=O)N(CCCCN)CC(=O)N(CC(=O)N(CCCCN)CC(=O)N(CC(=O)N(CCCCN)CC(=O)N(CC(=O)N(CCCCN)CC(=O)N(CC(N)=O)Cc1ccc(I)cc1)Cc1ccccc1)Cc1ccc(I)cc1)Cc1ccccc1)Cc1ccc(I)cc1` [Compound 27] (H-[Nlys][NBzl(4-I)Gly][Nlys][Nphe][Nlys][NBzl(4-I)Gly][Nlys][Nphe][Nlys][NBzl(4-I)Gly]-NH2) yielded a CAC of more than 5 mg/mL.

Turning to `NCCCCNCC(=O)N(CC(=O)N(CCCCN)CC(=O)N(CC(=O)N(CCCCN)CC(=O)N(CC(=O)N(CCCCN)CC(=O)N(CC(=O)N(CCCCN)CC(=O)N(CC(=O)N(CCCCN)CC(=O)N(CC(N)=O)Cc1ccc(I)cc1)Cc1ccc(I)cc1)Cc1ccc(I)cc1)Cc1ccc(I)cc1)Cc1ccc(I)cc1)Cc1ccc(I)cc1` [Compound 32] (H-[Nlys][NBzl(4-I)Gly][Nlys][NBzl(4-I)Gly][Nlys][NBzl(4-I)Gly][Nlys][NBzl(4-I)Gly][Nlys][NBzl(4-I)Gly][Nlys][NBzl(4-I)Gly]-NH2; N-terminus assumed), the “critical aggregation concentration (CAC)” value is 0.4 mg/mL. Also, the CAC under setting [2] is recorded as 0.4 mg/mL.
